Assay results published in ChEMBL document CHEMBL5034000, “Novel Bisubstrate Inhibitors for Protein N-Terminal Acetyltransferase D” (J Med Chem, 2021).
Active and inactive are the calls of the source. The rule behind the calls is not given here. Where a SMILES comes first, the peptide text is derived from it. [ ]: non-standard residue; d: D form. The star is where a group is joined. X2 = CC(C)(COP(=O)(O)OP(=O)(O)OC[C@H]1O[C@@H](n2cnc3c(N)ncnc32)[C@H](OP(=O)(O)O)[C@@H]1O)C(O)C(=O)NCCC(=O)NCC*; Mpa = O=C(O)CCS

Columns and labels:
[1] = tested on: NatC (Schizosaccharomyces pombe); assay: Inhibition of Schizosaccharomyces pombe NatC using AcCoA and MLRF peptide as substrate at 10 uM incubated for 5 min at room temperature
[2] = target: T1, Histone acetyltransferase KAT8 (Homo sapiens) (UniProt Q9H7Z6); assay: Inhibition of human MOF using AcCoA and H4 peptide as substrate at 1 uM incubated for 20 min at room temperature relative to control
T1 sequence (whole entry): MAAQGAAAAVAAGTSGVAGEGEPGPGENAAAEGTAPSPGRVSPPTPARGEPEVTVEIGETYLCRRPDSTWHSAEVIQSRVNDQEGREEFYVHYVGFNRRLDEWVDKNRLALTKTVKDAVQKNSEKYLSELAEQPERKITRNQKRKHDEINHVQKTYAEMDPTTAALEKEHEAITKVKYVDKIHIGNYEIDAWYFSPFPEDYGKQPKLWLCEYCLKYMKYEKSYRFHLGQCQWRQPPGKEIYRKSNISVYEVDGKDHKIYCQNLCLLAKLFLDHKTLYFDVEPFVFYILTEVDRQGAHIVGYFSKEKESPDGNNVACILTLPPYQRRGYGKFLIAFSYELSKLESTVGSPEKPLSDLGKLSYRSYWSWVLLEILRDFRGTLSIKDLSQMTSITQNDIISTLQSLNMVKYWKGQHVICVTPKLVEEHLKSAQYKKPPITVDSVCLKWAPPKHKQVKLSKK

[3] = target: N-alpha-acetyltransferase 40 (Homo sapiens) (UniProt Q86UY6); settings: HCT-116, Lysate, dose 100.0 µM, time 2.0 hrs
Homo sapiens [4] = species on record: Homo sapiens; assay: Inhibition of human NatA using AcCoA and H4 peptide as substrate at 1 uM incubated for 12 min at room temperature relative to control
[5] = target: T2, N-alpha-acetyltransferase 50 (Homo sapiens) (UniProt Q9GZZ1); assay: Inhibition of human NatE using AcCoA and MLGP peptide as substrate at 10 uM incubated for 40 min at room temperature
T2 sequence (whole entry): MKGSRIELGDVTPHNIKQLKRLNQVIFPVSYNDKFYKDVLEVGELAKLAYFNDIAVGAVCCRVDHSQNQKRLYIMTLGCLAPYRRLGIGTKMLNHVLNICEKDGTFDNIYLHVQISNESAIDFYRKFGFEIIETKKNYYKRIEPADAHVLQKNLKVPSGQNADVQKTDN

Homo sapiens [6] = species on record: Homo sapiens; assay: Selectivity ratio of inhibition of human NatA to inhibition of human NatD
Homo sapiens [7] = species on record: Homo sapiens; assay: Selectivity ratio of inhibition of human MOF to inhibition of human NatD
Homo sapiens [8] = species on record: Homo sapiens; assay: Inhibition of human NatB using AcCoA and MDVF peptide as substrate at 10 uM incubated for 10 min at room temperature
[9] = Drug uptake in digitonin treated human HCT116 cells measured at 100 uM after 2 hrs of incubation by MALDI-MS; type: ADME, cell-based; settings: hct-116, 2 h
[10] = tested on: NatC (Schizosaccharomyces pombe); assay: Selectivity ratio of inhibition of Schizosaccharomyces pombe NatC to inhibition of human NatD
[11] = target: Histone acetyltransferase KAT2B (Homo sapiens) (UniProt Q92831); assay: Inhibition of human PCAF using AcCoA and H4 peptide as substrate at 10 uM incubated for 20 min at room temperature
[12] = target: N-alpha-acetyltransferase 40 (Homo sapiens) (UniProt Q86UY6); assay: Non-competitive inhibition of human NatD using various concentration of [14C]acetyl-CoA and fixed human H4 peptide as substrate measured after 13 mins radioactive assay

Chain of Histone acetyltransferase KAT2B (Homo sapiens) (Q92831 whole entry, looked up): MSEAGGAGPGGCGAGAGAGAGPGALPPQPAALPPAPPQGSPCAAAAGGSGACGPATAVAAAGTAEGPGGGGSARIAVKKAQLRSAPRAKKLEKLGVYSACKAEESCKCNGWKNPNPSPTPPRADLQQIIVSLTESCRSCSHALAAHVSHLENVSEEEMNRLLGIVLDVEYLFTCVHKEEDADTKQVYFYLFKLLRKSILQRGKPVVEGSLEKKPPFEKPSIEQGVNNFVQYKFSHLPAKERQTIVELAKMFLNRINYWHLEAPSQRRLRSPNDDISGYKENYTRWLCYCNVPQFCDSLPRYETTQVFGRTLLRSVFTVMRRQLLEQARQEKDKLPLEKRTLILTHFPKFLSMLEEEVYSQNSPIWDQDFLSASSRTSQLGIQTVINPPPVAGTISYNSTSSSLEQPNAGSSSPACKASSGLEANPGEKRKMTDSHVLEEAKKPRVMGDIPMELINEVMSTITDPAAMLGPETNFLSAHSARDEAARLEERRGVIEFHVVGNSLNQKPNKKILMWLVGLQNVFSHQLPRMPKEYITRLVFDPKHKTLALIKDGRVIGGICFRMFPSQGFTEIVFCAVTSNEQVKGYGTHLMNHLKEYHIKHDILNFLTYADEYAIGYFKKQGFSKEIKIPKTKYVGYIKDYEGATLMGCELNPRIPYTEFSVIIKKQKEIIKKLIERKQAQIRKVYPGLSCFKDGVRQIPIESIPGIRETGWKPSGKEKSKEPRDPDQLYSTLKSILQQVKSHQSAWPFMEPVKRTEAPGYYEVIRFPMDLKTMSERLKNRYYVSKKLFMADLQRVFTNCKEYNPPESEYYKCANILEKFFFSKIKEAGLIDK

Row | SMILES | inhibition [1] | inhibition [2] [%] | deltaT [3] [°C] | inhibition (Homo sapiens [4]) [%] | inhibition [5] | Selectivity ratio (Homo sapiens [6]) | Selectivity ratio (Homo sapiens [7]) | inhibition (Homo sapiens [8]) | Drug uptake [9] | Selectivity ratio [10] | inhibition [11] | alphaKi [12] [nM]
1 | CC(C)(COP(=O)(O)OP(=O)(O)OC[C@H]1O[C@@H](n2cnc3c(N)ncnc32)[C@H](OP(=O)(O)O)[C@@H]1O)C(O)C(=O)NCCC(=O)NCCSCCC(=O)N[C@@H](CO)C(=O)NCC(=O)N[C@@H](CCCNC(=N)N)C(=O)NCC(=O)N[C@@H](CCCCN)C(N)=O (stereo partly drawn) ([Mpa](X2)SGRGK-NH2) | inactive | 10 | 1.7 | 10 | inactive | 1000 | 1000 | inactive | Active | 10000 | inactive | 2.1
2 | CC(C)(COP(=O)(O)OP(=O)(O)OC[C@H]1O[C@@H](n2cnc3c(N)ncnc32)[C@H](OP(=O)(O)O)[C@@H]1O)C(O)C(=O)NCCC(=O)NCCSCCC(=O)N[C@@H](CO)C(=O)NCC(=O)N[C@@H](CCCNC(=N)N)C(=O)NCC(N)=O (stereo partly drawn) |  |  |  |  |  |  |  |  | Active |  |  | 
